Publication PMC9628899 (Antiviral Research, 2003)
Read-outs that look alike come from different tables or passages of the source.

Assays:
[1] = system: vaccinia virus; assay type: in vivo, mice
[2] = system: cowpox virus; design: species or system mice; settings: mouse, in vivo
[3] = system: vaccinia, cowpox, monkeypox, and variola viruses; assay type: cell-based
[4] = system: vaccinia virus (VV); settings: read-out: EC50 Vaccinia; Table 4; ref Kern et al. (2002); cited from earlier work
[5] = system: cowpox virus (CV); settings: read-out: EC50 Cowpox; cited from earlier work
[6] = system: Monkeypox; settings: read-out: EC50 Monkeypox; cited from earlier work
[7] = system: Variola; settings: read-out: EC50 Variola; cited from earlier work
[8] = system: cowpox virus; settings: mouse, in vivo, po; cited from earlier work
[9] = system: vaccinia virus (VV); test: microbe, parasite or virus in culture; assay type: cell-based
[10] = system: cowpox virus (CV); test: microbe, parasite or virus in culture; assay type: cell-based
[11] = system: HFF cells
[12] = in vitro; settings: human
[13] = ref Barditch-Crovo et al., 1997; cited from earlier work
[14] = Orthopoxvirus vaccinia, HFF, read-out: EC50 VV
[15] = Cowpox virus, HFF, read-out: EC50 CV
[16] = Orthopoxvirus vaccinia, HFF, read-out: Vaccinia virus EC50
[17] = Cowpox virus, HFF, read-out: Cowpox virus EC50

Compound	EC50 [9, 14]	EC50 [10, 15]	EC50 [9, 16]	EC50 [10, 17]	CC50 [12]	also measured
CCCCCCCCCCCCCCCCOCCCOP(=O)(O)CO[C@H](CO)Cn1ccc(N)nc1=O [HDP-CDV, 3-hexadecyloxy-l-propanol CDV]						activity in vaccinia virus infection of mice ([1]; given orally, Kern, unpublished results): active orally; activity in cowpox virus infection of mice ([2]; po): active orally; active at levels -fold less than the parent molecules [3]: 50- to 200 fold; EC50 [4]: 0.8 ± 0.4 µM; EC50 [5]: 0.6 ± 0.3 µM; EC50 [6]: 0.07 µM; EC50 [7]: 0.1 µM; activity in cowpox virus-infected mice [8]: active
O=c1[nH]c(=O)n([C@H]2C[C@H](O)[C@@H](CO)O2)cc1/C=C/Br [Brivudin]	> 100 µM	66 µM				
O=c1[nH]c(=O)n([C@@H]2O[C@H](CO)[C@@H](O)[C@@H]2F)cc1I [Fialuridine]	1.5 µM	0.24 µM				
Nc1ncnc2c1ncn2[C@@H]1O[C@H](CO)[C@@H](O)[C@@H]1O [Vidarabine]						activity in murine model of vaccinia virus infection ([1]; data not presented): not active; activity in murine model of cowpox virus infection [2]: not active
CCOC(=O)C(C)NP1(=O)COC(Cn2ccc(N)nc2=O)CO1 (single isomer, unassigned; isomer i) [Ethyl alaninyl cyclic HPMPC—isomer I, Ethyl alaninyl cyclic HPMPC]						EC50 ([9]; read-out: Vaccinia virus EC50): 15 ± 13 µM; EC50 ([10]; read-out: Cowpox virus EC50): 27 ± 6.5 µM; CC50 [11]: > 276 µM
C[C@H](Cn1cnc2c(N)ncnc21)OCP(=O)(O)O [PMPA, (R)-9-(2-phosphonylmethoxypropyl)adenine]			> 300 µM	> 300 µM	> 300 µM	
CC(C)(C)C(=O)OCOP(=O)(COCCn1cnc2c(N)ncnc21)OCOC(=O)C(C)(C)C [Adefovir dipivoxil, bis(pivaloyloxymethyl)PMEA]	5.1 µM	13 µM	5.1 ± 0.7 µM	13 ± 8.8 µM	117 ± 27 µM	oral bioavailability [13]: good oral bioavailability
Nc1ccn([C@@H]2O[C@H](CO)[C@@H](O)C2(F)F)c(=O)n1 [Gemcitabine]	0.013 µM	0.017 µM				selectivity index [9]: > 200; toxicity in vitro (in words) [11]: very toxic
Nc1nc2c(ncn2CCC(CO)CO)c(=O)[nH]1 [Penciclovir]	> 300 µM	> 300 µM				
CC(C)OC(=O)[C@H](C)N[P@](=O)(CO[C@H](C)Cn1cnc2c(N)ncnc21)Oc1ccccc1 [Isopropyl alaninylphenyl PMPA]			23.5 µM	98.9 µM	> 143 µM	
Nc1ccn([C@@H]2CS[C@H](CO)O2)c(=O)n1 [Lamivudine]	> 400 µM	> 400 µM				
CCOCn1c(Cc2ccccc2)c(C(C)C)c(=O)[nH]c1=O [Emivirine]	> 300 µM	> 300 µM				
O=c1[nH]c(=O)n([C@@H]2O[C@H](CO)[C@@H](O)[C@@H]2O)cc1/C=C/Br [Sorivudine]	> 100 µM	> 100 µM				
CCCCCCCCCCCCCCCCOCCCOP1(=O)COC(Cn2ccc(N)nc2=O)CO1 (stereo not drawn) [HDP-cCDV, 3-hexadecyloxy-l-propanol cyclic CDV]						active at levels -fold less than the parent molecules [3]: 50- to 200 fold; EC50 [4]: 3.8 ± 1.5 µM; EC50 [5]: 2.1 ± 1.9 µM; EC50 [6]: 1.8 µM; EC50 [7]: 0.9 µM
Nc1ccn(C[C@@H](CO)OCP(=O)(O)O)c(=O)n1 [Cidofovir, (S)-1(3-hydroxy-2-phosphonylmethoxypropyl) cytosine]	33 µM	43 µM	33 ± 9.1 µM	43 ± 2.5 µM	278 ± 9.2 µM	EC50 [4]: 46.2 ± 11.9 µM; EC50 [5]: 44.7 ± 6.3 µM; EC50 [6]: 4.6 µM; EC50 [7]: 27.3 µM
CC(=O)OCC(CCn1cnc2cnc(N)nc21)COC(C)=O [Famciclovir]	> 300 µM	> 300 µM				
Cc1cn([C@H]2O[C@@H](CO)[C@H](O)[C@H]2F)c(=O)[nH]c1=O [Clevudine]	> 300 µM	> 300 µM				
NC(=O)c1ncn([C@@H]2O[C@H](CO)[C@@H](O)[C@H]2O)n1 [Ribavirin]	280 µM	> 400 µM				
CC(C)OC(=O)OCOP(=O)(CO[C@H](C)Cn1cnc2c(N)ncnc21)OCOC(=O)OC(C)C [Bis(isopropoxycarbonyloxymethyl)PMPA, bis(isopropoxycarbonyloxymethyl)PMPA]			> 157 µM	> 157 µM	> 157 µM	
Nc1ncnc2c1ncn2CCOCP(=O)(O)O [Adefovir, 9-(2-phosphonylmethoxyethyl)adenine]	> 300 µM	> 300 µM	> 366 µM	> 366 µM	> 366 µM	
